Where “and” joins values, the source holds several entries; their conditions need not be identical. Identical values can stand only once.
Legend:
MyD88^TIR = target: T1, MyD88^TIR (Homo sapiens, UniProt Q99836); experiment: T‐Surf phage library (P8 and P3) selection against MyD88^TIR, four rounds, NGS read counts; assay type: binding; details: for P3_MyD88 Rank (after) / P3_MyD88 Rank (before): P3 library; for Population: 4th round of selection against MyD88 TIR, share of NGS reads
T1 construct: MyD88 (residues 148–296); 6xHis; made in house; host or cells: E. coli BL21 (DE3)
Outline: (§1)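 Four panning rounds on TIR domain adsorbed at 5 µg mL^−1; binding 1 h at 20–22 °C, elution with 100 mM HCl. Output: NGS read counts of round‐4 pools versus naïve library.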

MAL^TIR = target: T2, MAL^TIR (Homo sapiens, UniProt P58753); experiment: T‐Surf phage library (P8 and P3) selection against MAL^TIR, four rounds, NGS read counts; assay type: binding; details: for P3_MAL Rank (after) / P3_MAL Rank (before): P3 library; for Population: 4th round of selection against MAL TIR, share of NGS reads
T2 construct: MAL (residues 79–221); 6xHis; made in house; host or cells: E. coli BL21 (DE3)
Outline: as §1

[1] = tested on: human conjunctival epithelial cells and rabbit cornea; details: cited from earlier work
[2] = selection against MyD88, rank after grouping
[3] = selection against MyD88, rank before grouping
[4] = selection against MAL, rank after grouping
[5] = selection against MAL, rank before grouping
[6] = P3_MyD88 pool: P3 T-Surf phage library
[7] = P8_MAL: rank by count after grouping
[8] = P8_MAL: rank by count before grouping
[9] = P3_MyD88: rank by count after grouping
[10] = P3_MyD88: rank by count before grouping
[11] = P3_MAL: rank by count after grouping
[12] = P3_MAL: rank by count before grouping
[13] = P3_MAL pool: P3 T-Surf phage library
[14] = selection against MAL TIR, rank by count after grouping
[15] = selection against MAL TIR, rank by count before grouping

T2 sequence (P58753 79-221): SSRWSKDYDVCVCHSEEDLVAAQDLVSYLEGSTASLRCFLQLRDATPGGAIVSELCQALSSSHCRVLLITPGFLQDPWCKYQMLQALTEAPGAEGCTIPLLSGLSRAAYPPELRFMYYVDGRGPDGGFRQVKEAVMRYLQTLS
T1 sequence (Q99836 148-296): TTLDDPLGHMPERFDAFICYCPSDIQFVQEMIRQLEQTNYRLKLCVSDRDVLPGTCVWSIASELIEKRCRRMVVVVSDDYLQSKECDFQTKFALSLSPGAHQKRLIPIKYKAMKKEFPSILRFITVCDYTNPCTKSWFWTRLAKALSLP

Substance: KEVEGWRDALTKVANLSGW
- P3_MyD88 Rank (after) (MyD88^TIR; [2]): 522
- P3_MyD88 Rank (before) (MyD88^TIR; [3]): 3634
- P3_MAL Rank (after) (MAL^TIR; [4]): 565
- P3_MAL Rank (before) (MAL^TIR; [5]): 3573

Substance: YTALTNSGFHTFRDND
- Population (MyD88^TIR; [6]): 0.00291%
- Rank (after) (MAL^TIR; [7]): 105
- Rank (before) (MAL^TIR; [8]): 584

Substance: LQNQWKLALTKVANLSGW
- Rank (after) (MyD88^TIR; [9]): 98
- Rank (before) (MyD88^TIR; [10]): 680
- Rank (after) (MAL^TIR; [11]): 116
- Rank (before) (MAL^TIR; [12]): 213

Substance: DIQRSRFKDDADLVGQ
- Rank (after) (MyD88^TIR; [9]): 391
- Rank (before) (MyD88^TIR; [10]): 2068
- Rank (after) (MAL^TIR; [11]): 130
- Rank (before) (MAL^TIR; [12]): 1958

Substance: penetratin
- cellular and tissue toxicity compared with other CPPs such as TAT and polyarginine [1]: lower cellular and tissue toxicity
- cellular uptake [1]: excellent cellular uptake

Substance: LQNQWKLALTKVASL
- Rank (after) (MyD88^TIR; [9]): 100
- Rank (before) (MyD88^TIR; [10]): 374
- Rank (after) (MAL^TIR; [11]): 132
- Rank (before) (MAL^TIR; [12]): 327

Substance: RGFLSHLRHHLQAKDH
- Rank (after) (MyD88^TIR; P8_MyD88: rank by NGS read count after grouping): 907
- Rank (before) (MyD88^TIR; P8_MyD88: rank by NGS read count before grouping): 3395
- Rank (after) (MAL^TIR; [7]): 107
- Rank (before) (MAL^TIR; [8]): 654

Substance: SSFREGLWRLLELSKLRYAM
- P3_MyD88 Rank (after) (MyD88^TIR; [2]): 517
- P3_MyD88 Rank (before) (MyD88^TIR; [3]): 3173
- P3_MAL Rank (after) (MAL^TIR; [4]): 558
- P3_MAL Rank (before) (MAL^TIR; [5]): 3151

Substance: WKNALANIAEILGFEL
- Rank (after) (MyD88^TIR; P8_MyD88: rank by count after grouping): 162
- Rank (before) (MyD88^TIR; P8_MyD88: rank by count before grouping): 180
- Population (MyD88^TIR; P8_MyD88 pool: P8 T-Surf phage library): 0.00732%
- P8_MAL Rank (after) (MAL^TIR; P8 library, selection against MAL TIR, rank by count after grouping): 287
- P8_MAL Rank (before) (MAL^TIR; P8 library, selection against MAL TIR, rank by count before grouping): 1431

Substance: LNGAIRIFGANCVMR
- P3_MyD88 Rank (after) (MyD88^TIR; [2]): 494
- P3_MyD88 Rank (before) (MyD88^TIR; [3]): 2400
- P3_MAL Rank (after) (MAL^TIR; [4]): 534
- P3_MAL Rank (before) (MAL^TIR; [5]): 2194

Substance: SFFGINCVIICQRRS
- P3_MyD88 Rank (after) (MyD88^TIR; [2]): 545
- P3_MyD88 Rank (before) (MyD88^TIR; [3]): 2934
- Rank (after) (MAL^TIR; [11]): 126
- Rank (before) (MAL^TIR; [12]): 360

Substance: EWIREGLWRLLELSKK
- Rank (after) (MyD88^TIR; [9]): 96
- Rank (before) (MyD88^TIR; [10]): 361
- Rank (after) (MAL^TIR; [11]): 135
- Rank (before) (MAL^TIR; [12]): 411

Substance: YAFTGHLHRYLVQHGV
- Population (MyD88^TIR; [6]): 0.00378%
- Population (MAL^TIR; [13]): 0.0109%

Substance: RLLKWKEALHQFHSW
- Rank (after) (MyD88^TIR; [9]): 130
- Rank (before) (MyD88^TIR; [10]): 708
- Rank (after) (MAL^TIR; [11]): 136
- Rank (before) (MAL^TIR; [12]): 436

Substance: LKWAIRIFGANCVMR
- Rank (after) (MyD88^TIR; [9]): 154
- Rank (before) (MyD88^TIR; [10]): 1073
- P3_MAL Rank (after) (MAL^TIR; [14]): 274
- P3_MAL Rank (before) (MAL^TIR; [15]): 844

Substance: LKVESCVRRWKKRAN
- P3_MyD88 Rank (after) (MyD88^TIR; 4R selection against MyD88, rank after grouping): 592
- P3_MyD88 Rank (before) (MyD88^TIR; 4R selection against MyD88, rank before grouping): 2519
- P3_MAL Rank (after) (MAL^TIR; [14]): 213
- P3_MAL Rank (before) (MAL^TIR; [15]): 2293

Substance: LKWGYPWFWDRLRFA
- Population (MyD88^TIR; [6]): 0.00495%
- Rank (after) (MAL^TIR; [11]): 123
- Rank (before) (MAL^TIR; [12]): 329

Substance: WFYERLVSLILRDTKV
- P8_MyD88 Rank (after) (MyD88^TIR; P8 library, 4R selection against MyD88, rank after grouping): 615
- P8_MyD88 Rank (before) (MyD88^TIR; P8 library, 4R selection against MyD88, rank before grouping): 1356
- Population (MAL^TIR; P8_MAL pool: P8 T-Surf phage library): 0.00432% and 0.00402% and 0.00371% and 0.0034% and 0.00309% and 0.00278%

Substance: NQWRNALTAAANLS
- Population (MyD88^TIR; [6]): 0.00553%
- Population (MAL^TIR; [13]): 0.0162%
- Rank (after) (MAL^TIR; [11]): 102
- Rank (before) (MAL^TIR; [12]): 105

From publication PMC11714206, “Massively Parallel Screening of Toll/Interleukin‐1 Receptor (TIR)‐Derived Peptides Reveals Multiple Toll‐Like Receptors (TLRs)‐Targeting Immunomodulatory Peptides” (Advanced Science, 2024)
